In general, clearance refers to a measure of how efficiently the substance is removed, as volume per time. The term half-life denotes the time in which the quantity being followed falls by half. Higher therefore signals slow loss. Broadly, the bioavailability is the share of a dose that reaches the circulation, judged against a reference dose that is usually intravenous. Low values mean poor availability, high ones good availability.

Each structure is given as a SMILES string.

7 molecules from ChEMBL document CHEMBL1153243, “Structure and property based design of factor Xa inhibitors: pyrrolidin-2-ones with monoaryl P4 motifs” (Bioorg Med Chem Lett, 2010) can be followed below.

Common to all, as to type: ADME, organism-based
Data set [1] in a line: Volume of distribution at steady state in Sprague-Dawley rat. As to conditions: in vivo, read-out: Vdss.
A short description of data set [2]: Plasma clearance in Sprague-Dawley rat.
The nature of data set [3]: Half life in Sprague-Dawley rat. Particulars: in vivo.
A short description of data set [4]: Oral bioavailability in Sprague-Dawley rat. As to conditions: in vivo.

Turning to `CC(c1ccc(N2CC[C@H](NS(=O)(=O)c3cc4ccc(Cl)cc4s3)C2=O)c(F)c1)N(C)C` (stereo partly drawn), the Vd in data set [1] was 0.52 L/kg. Further, the clearance in data set [2] is 2.1 mL/min/kg. Also, in data set [3], the half-life was 3.1 h. Also, the bioavailability in data set [4] is 10%.

For the molecule `C[C@H](c1ccc(N2CC[C@H](NS(=O)(=O)/C=C/c3ccc(Cl)s3)C2=O)c(F)c1)N(C)C`, in data set [1], the Vd is 0.66 L/kg. The same molecule displayed a clearance in data set [2] of 7.5 mL/min/kg. This molecule also gave a half-life in data set [3] of 1.3 h. Further, in data set [4], the bioavailability was found to be 54%.

Take `C[C@@H](c1ccc(N2CC[C@H](NS(=O)(=O)c3ccc4cc(Cl)ccc4c3)C2=O)c(F)c1)N(C)C`: the Vd in data set [1] was 1.8 L/kg. Also, the clearance in data set [2] is 13 mL/min/kg. The same molecule gave a half-life in data set [3] of 2.1 h. This molecule also returned a bioavailability in data set [4] of 81%.

Turning to `CN[C@@H](C)c1ccc(N2CC[C@H](NS(=O)(=O)c3ccc4cc(Cl)ccc4c3)C2=O)c(F)c1`, in data set [1], the Vd is 3.3 L/kg. Also, the clearance in data set [2] was found to be 3.1 mL/min/kg. In addition, the half-life in data set [3] was 15 h. This molecule came in with a bioavailability in data set [4] of more than 15%.

For `CN[C@H](C)c1ccc(N2CC[C@H](NS(=O)(=O)c3ccc4cc(Cl)ccc4c3)C2=O)c(F)c1`, in data set [1], the Vd was determined as 2.4 L/kg. The molecule also gave a clearance in data set [2] of 1.6 mL/min/kg. The half-life in data set [3] was 18 h. The same molecule gave a bioavailability in data set [4] of more than 10%.

On to `C[C@@H](c1ccc(N2CC[C@H](NS(=O)(=O)/C=C/c3ccc(Cl)s3)C2=O)c(F)c1)N(C)C`, for which the Vd in data set [1] came to 0.53 L/kg. In data set [2], the clearance was determined as 4.3 mL/min/kg. In data set [3], this molecule showed a half-life of 1.6 h. In addition, the bioavailability in data set [4] came out at 23%.

On to `C[C@H](c1ccc(N2CC[C@H](NS(=O)(=O)c3ccc4cc(Cl)ccc4c3)C2=O)c(F)c1)N(C)C`, for which the Vd in data set [1] came to 1.3 L/kg. In addition, in data set [2], the clearance worked out at 8 mL/min/kg. Also, the half-life in data set [3] was 2.6 h. Also, the bioavailability in data set [4] came out at 43%.
